The results in this text go back to ChEMBL document CHEMBL1151375, “Potential antitumor agents. XVII. physalin B and 25,26-epidihydrophysalin C from Witheringia coccoloboides” (1981).

Each structure is given as a SMILES string. In brackets after ≈: the same amount, converted by molar mass.

The term T/C denotes the result in the treated group divided by that in the control group, in per cent.

Holding throughout (type): functional
Assay [1] in a line: Cytotoxicity against human 9KB cells. The conditions noted are these: read-out: ED50 (the source's name).
Assay [2] is described as follows: In vivo cytotoxicity against mouse 3PS cells at 300 mg/kg.
Assay [3] in a line: Cytotoxicity against mouse 9PS cells. Conditions: read-out: ED50 (the source's name).

Regarding `C[C@]12C(=O)C=CCC1=CC[C@@H]1[C@@H]2CC[C@]2(O)C(=O)O[C@@]3(C)[C@H]4C[C@]5(C)[C@@H](CO[C@@]16O[C@@]32[C@H]5C6=O)C(=O)O4` [PHYSALIN B], the EC50 in assay [1] was found to be 3.1 µg/mL (≈ 6.07 µM); in assay [3] it was 0.01 µg/mL (≈ 0.0196 µM). In addition, the T/C in assay [2] worked out at 137%.
Take `C[C@@]12C[C@H]3OC(=O)[C@@H]1CO[C@]14O[C@@]5([C@H]2C1=O)[C@@]3(C)OC(=O)[C@@]5(O)CC[C@H]1[C@H]4C[C@@H]2O[C@@]23CC=CC(=O)[C@]13C` [5-ALPHA,6-ALPHA-EPOXYPHYSALIN B]: the EC50 worked out at 0.43 µg/mL (≈ 0.817 µM) in assay [1] and 1.6 µg/mL (≈ 3.04 µM) in assay [3].
As for `C[C@@H]1C(=O)O[C@@H]2C[C@@]1(C)[C@@H]1C(=O)[C@]3(O)O[C@]14[C@@]2(C)OC(=O)[C@@]4(O)CC[C@H]1[C@H]3CC=C2CC=CC(=O)[C@@]21C`, the EC50 in assay [1] is 12 µg/mL (≈ 23.4 µM); in assay [3], 0.89 µg/mL (≈ 1.74 µM).
